In patent US8067424B2, “Selective inhibitors for cyclin-dependent kinases” (Emory University, priority 2007, dated 2011):
Read-outs that look alike come from different tables or passages of the source.

What was measured:
MAPKAP-K3 = MAPKAP-K3 (Homo sapiens, UniProt Q16644); test: Kinase screen: MAPKAP-K3 assay; format: biochemical; conditions: read-out: Mean Remaining Enzyme Activity (%)
Procedure: (§1) Generally, the same procedure was used for all assays. Since the total assay volume was 25.5 microliters, 0.5 microliters of inhibitors at 51× assay concentration were added to the plates before any other addition.
(§2) The basic procedure was to add 0.5 microliters inhibitor/control in DMSO to plate. Fifteen microliters of enzyme/substrate/buffer mix were added and incubated for 5 min. Ten microliters MgATP at the relevant concentration were added and incubated for 30 min. The assay was stopped by adding 5 microliters of 3% orthophosphoric acid. The assay was transferred to a p81 filter plate and read in a scintillation counter of 30 sec/well. Note that this assay procedure was not followed for MKK1, which instead involved a two-step assay, and PKC alpha, which required the addition of lipid vesicles.
MAPKAP-K3 assay: 5-20 mU of MAPKAP-K3 (diluted in 50 mM Tris (pH 7.5), 0.1 mM EGTA, 1 mg/ml BSA, 0.1%, b-Mercaptoethanol) was assayed against substrate peptide ([…]) (SEQ ID NO: 3) in a final volume of 25.5 μl containing 50 mM Tris (pH 7.5), 0.1 mM EGTA, 0.1%, b-Mercaptoethanol, 30 μM substrate peptide, 10 mM magnesium acetate and 0.02 mM [33P-g-ATP] (500-1000 cpm/pmole) and incubated for 30 mins at room temperature. Assays were stopped by addition of 5 μl of 0.5M (3%) orthophosphoric acid. Assays were harvested onto P81 Unifilter plates using a wash buffer of 50 mM orthophosphoric acid.

JNK3 = JNK3 (Homo sapiens, UniProt P53779); test: Kinase screen: JNK3 alpha 1 assay; format: biochemical; conditions: read-out: Mean Remaining Enzyme Activity (%)
Sequence of JNK3 (P53779 1-422 isoform P53779-2, species assumed): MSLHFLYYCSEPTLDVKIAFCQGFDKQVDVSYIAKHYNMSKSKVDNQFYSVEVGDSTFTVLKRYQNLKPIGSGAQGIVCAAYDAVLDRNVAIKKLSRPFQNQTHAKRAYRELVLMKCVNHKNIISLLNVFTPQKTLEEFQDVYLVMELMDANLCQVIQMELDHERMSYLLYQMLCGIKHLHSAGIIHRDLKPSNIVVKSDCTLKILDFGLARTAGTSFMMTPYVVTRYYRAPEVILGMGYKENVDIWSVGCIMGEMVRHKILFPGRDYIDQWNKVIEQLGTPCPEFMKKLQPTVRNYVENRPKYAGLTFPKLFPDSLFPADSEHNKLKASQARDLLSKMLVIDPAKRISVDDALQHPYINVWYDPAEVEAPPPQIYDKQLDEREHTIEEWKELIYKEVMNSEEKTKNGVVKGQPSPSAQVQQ
Procedure: as §1, §2
JNK3 alpha 1 assay: JNK3 alpha 1(5-20 mU diluted in 50 mM Tris (pH 7.5), 0.1 mM EGTA, 1 mg/ml BSA, 0.1% b-mercaptoethanol) was assayed against ATF2 (activating transcription factor in a final volume of 25.5 μl in 50 mM Tris pH 7.5, 0.1 mM EGTA, 0.1% b-Mercaptoethanol, ATF2 (3 μM), 10 mM magnesium acetate and 0.05 mM [33P-g-ATP] (500-1000 cpm/pmole) and incubated for 30 min at room temperature. Assays were stopped by addition of 5 μl of 0.5 M (3%) orthophosphoric acid and then harvested onto P81 Unifilter plates with a wash buffer of 50 mM orthophosphoric acid.

U251 = test: cells; conditions: Homo sapiens
A549/ATCC = test: cells; conditions: Homo sapiens
ACHN = test: cells; conditions: Homo sapiens
MOLT-4 = test: cells; conditions: Homo sapiens
PC-3 = test: cells; conditions: Homo sapiens
MDA-MB-435 = test: cells; conditions: Homo sapiens
SN12C = test: cells; conditions: Homo sapiens
[1] = HOP-92, log10 concentration −4.0
[2] = HOP-92, log10 concentration −5.0
[3] = HOP-92, log10 concentration −6.0
[4] = HOP-92, log10 concentration −7.0
[5] = HOP-92, log10 concentration −8.0
[6] = SF-268, log10 concentration −4.0
[7] = SF-268, log10 concentration −5.0
[8] = SF-268, log10 concentration −6.0
[9] = SF-268, log10 concentration −7.0
[10] = SF-268, log10 concentration −8.0
[11] = OVCAR-3, log10 concentration −4.0
[12] = OVCAR-3, log10 concentration −5.0
[13] = OVCAR-3, log10 concentration −6.0
[14] = OVCAR-3, log10 concentration −7.0
[15] = OVCAR-3, log10 concentration −8.0
[16] = OVCAR-8, log10 concentration −4.0
[17] = OVCAR-8, log10 concentration −5.0
[18] = OVCAR-8, log10 concentration −6.0
[19] = OVCAR-8, log10 concentration −7.0
[20] = OVCAR-8, log10 concentration −8.0
[21] = SK-MEL-28, log10 concentration −4.0
[22] = SK-MEL-28, log10 concentration −5.0
[23] = SK-MEL-28, log10 concentration −6.0
[24] = SK-MEL-28, log10 concentration −7.0
[25] = SK-MEL-28, log10 concentration −8.0
[26] = MDA-MB-468, log10 concentration −4.0
[27] = MDA-MB-468, log10 concentration −5.0
[28] = MDA-MB-468, log10 concentration −6.0
[29] = MDA-MB-468, log10 concentration −7.0
[30] = MDA-MB-468, log10 concentration −8.0

Sequence of MAPKAP-K3 (Q16644 whole entry, species assumed): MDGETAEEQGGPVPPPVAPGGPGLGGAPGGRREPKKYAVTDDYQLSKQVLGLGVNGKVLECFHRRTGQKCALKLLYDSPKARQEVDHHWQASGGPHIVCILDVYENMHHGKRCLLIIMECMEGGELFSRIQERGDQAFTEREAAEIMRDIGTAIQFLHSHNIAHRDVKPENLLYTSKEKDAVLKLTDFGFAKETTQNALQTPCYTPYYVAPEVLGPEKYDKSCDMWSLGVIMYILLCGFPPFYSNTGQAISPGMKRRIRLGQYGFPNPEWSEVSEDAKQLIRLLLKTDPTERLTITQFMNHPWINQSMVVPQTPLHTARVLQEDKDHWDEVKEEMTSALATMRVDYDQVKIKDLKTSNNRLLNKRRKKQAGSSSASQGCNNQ

CC(C)c1cnn2c(NCc3ccccc3)cc(NCCCCCCCN)nc12 [BS-181]
remaining activity at 10 µM (MAPKAP-K3): 119%
remaining activity at 10 µM (JNK3): 128%

CC(C)c1cnn2c(NCc3ccccc3)cc(N[C@@H](CO)[C@H](O)CO)nc12 [ICEC0318, (3S)-3-(7-(Benzylamino)-3-isopropylpyrazolo[1,5-a]pyrimidin-5-ylamino)butane-1,2,4-triol]
TGI (HOP-92; HOP-92 (Non-Small Cell Lung Cancer)): >1.00E−4
Mean Optical Densities (HOP-92; [1]): 0.594
Percent Growth (HOP-92; [1]): 12%
Mean Optical Densities (HOP-92; [2]): 0.612
Percent Growth (HOP-92; [2]): 16%
Mean Optical Densities (HOP-92; [3]): 0.645
Percent Growth (HOP-92; [3]): 22%
Mean Optical Densities (HOP-92; [4]): 0.981
Percent Growth (HOP-92; [4]): 86%
Mean Optical Densities (HOP-92; [5]): 1.050
Percent Growth (HOP-92; [5]): 99%
TGI (SF-268; SF-268 (CNS Cancer)): 3.12E−5
Mean Optical Densities (SF-268; [6]): 0.404
Percent Growth (SF-268; [6]): −5%
Mean Optical Densities (SF-268; [7]): 0.460
Percent Growth (SF-268; [7]): 5%
Mean Optical Densities (SF-268; [8]): 0.452
Percent Growth (SF-268; [8]): 4%
Mean Optical Densities (SF-268; [9]): 1.234
Percent Growth (SF-268; [9]): 99%
Mean Optical Densities (SF-268; [10]): 1.291
Percent Growth (SF-268; [10]): 106%
GI50 (U251; U-251): 261 nM
CC50 (U251; U-251, read-out: LC50): > 100000 nM
GI50 (OVCAR-3; Homo sapiens, OVCAR-3): 335 nM
CC50 (OVCAR-3; Homo sapiens, OVCAR-3, read-out: LC50): > 100000 nM
TGI (OVCAR-3; OVCAR-3 (Ovarian Cancer)): >1.00E−4
Mean Optical Densities (OVCAR-3; [11]): 0.313
Percent Growth (OVCAR-3; [11]): 9%
Mean Optical Densities (OVCAR-3; [12]): 0.317
Percent Growth (OVCAR-3; [12]): 10%
Mean Optical Densities (OVCAR-3; [13]): 0.306
Percent Growth (OVCAR-3; [13]): 8%
Mean Optical Densities (OVCAR-3; [14]): 0.700
Percent Growth (OVCAR-3; [14]): 97%
Mean Optical Densities (OVCAR-3; [15]): 0.795
Percent Growth (OVCAR-3; [15]): 118%
GI50 (A549/ATCC; A549): 338 nM
CC50 (A549/ATCC; A549, read-out: LC50): > 100000 nM
GI50 (ACHN): 233 nM
CC50 (ACHN; read-out: LC50): > 100000 nM
GI50 (MOLT-4; MOLT-4): 259 nM
CC50 (MOLT-4; MOLT-4, read-out: LC50): > 100000 nM
TGI (OVCAR-8; OVCAR-8 (Ovarian Cancer)): >1.00E−4
Mean Optical Densities (OVCAR-8; [16]): 0.723
Percent Growth (OVCAR-8; [16]): 10%
Mean Optical Densities (OVCAR-8; [17]): 0.810
Percent Growth (OVCAR-8; [17]): 16%
Mean Optical Densities (OVCAR-8; [18]): 0.803
Percent Growth (OVCAR-8; [18]): 15%
Mean Optical Densities (OVCAR-8; [19]): 1.975
Percent Growth (OVCAR-8; [19]): 89%
Mean Optical Densities (OVCAR-8; [20]): 2.165
Percent Growth (OVCAR-8; [20]): 101%
GI50 (PC-3; PC-3): 314 nM
CC50 (PC-3; PC-3, read-out: LC50): > 100000 nM
GI50 (MDA-MB-435; MDA-MB-435): 309 nM
CC50 (MDA-MB-435; MDA-MB-435, read-out: LC50): > 100000 nM
TGI (SK-MEL-28; SK-MEL-28 (Melanoma)): 8.70E−7
Mean Optical Densities (SK-MEL-28; [21]): 0.114
Percent Growth (SK-MEL-28; [21]): −62%
Mean Optical Densities (SK-MEL-28; [22]): 0.198
Percent Growth (SK-MEL-28; [22]): −34%
Mean Optical Densities (SK-MEL-28; [23]): 0.284
Percent Growth (SK-MEL-28; [23]): −6%
Mean Optical Densities (SK-MEL-28; [24]): 0.733
Percent Growth (SK-MEL-28; [24]): 85%
Mean Optical Densities (SK-MEL-28; [25]): 0.816
Percent Growth (SK-MEL-28; [25]): 102%
GI50 (SN12C): 327 nM
CC50 (SN12C; read-out: LC50): > 100000 nM
GI50 (MDA-MB-468; Homo sapiens, MDA-MB-468): 165 nM
CC50 (MDA-MB-468; Homo sapiens, MDA-MB-468, read-out: LC50): 803 nM
TGI (MDA-MB-468; MDA-MB-468 (Breast Cancer)): 3.64E−7
Mean Optical Densities (MDA-MB-468; [26]): 0.121
Percent Growth (MDA-MB-468; [26]): −72%
Mean Optical Densities (MDA-MB-468; [27]): 0.153
Percent Growth (MDA-MB-468; [27]): −64%
Mean Optical Densities (MDA-MB-468; [28]): 0.154
Percent Growth (MDA-MB-468; [28]): −64%
Mean Optical Densities (MDA-MB-468; [29]): 0.884
Percent Growth (MDA-MB-468; [29]): 82%
Mean Optical Densities (MDA-MB-468; [30]): 0.946
Percent Growth (MDA-MB-468; [30]): 93%
